{
  "source": "ChEMBL document CHEMBL5634096",
  "about": "“Design, synthesis and bioevaluation of PI3Kα-selective inhibitors as potential colorectal cancer drugs” (Eur J Med Chem, 2023)",
  "key": {"[1]": {"test": "MRT (0 to t) in Sprague-Dawley rat at 5 mg/kg, iv measured upto 24 hrs by LC-MS analysis", "format": "ADME, organism-based", "conditions": "in vivo"}, "A549": {"tested_on": "A549", "test": "Antiproliferative activity against human A549 cells assessed as reduction in cell viability at 10 uM incubated for 24 to 48 hrs by CCK-8 assay", "format": "functional, cell-based", "conditions": "time lower […], time upper 48.0 hrs"}, "HCT-116 [2]": {"tested_on": "HCT-116", "test": "Induction of cell cycle arrest in human HCT-116 cells assessed as decrease in accumulation of cells at S phase at 3 to 12 uM incubated for 48 hrs by PI staining based flow cytometry analysis (reference value: 46.9 %)", "format": "functional", "set-up": "scale not given: the % may be the effect or the level left", "conditions": "dose 3-12 µM"}, "HCT-116 [3]": {"tested_on": "HCT-116", "test": "Antiproliferative activity against human HCT-116 cells assessed as inhibition of PI3K phosphorylation incubated for 48 hrs by Western blotting analysis", "format": "functional, cell-based", "conditions": "dose 3-12 µM"}, "HepG2": {"tested_on": "HepG2", "test": "Antiproliferative activity against human HepG2 cells assessed as reduction in cell viability at 10 uM incubated for 24 to 48 hrs by CCK-8 assay", "format": "functional, cell-based", "conditions": "time lower […], time upper 48.0 hrs"}, "5637": {"tested_on": "5637", "test": "Antiproliferative activity against human 5637 cells assessed as reduction in cell viability at 10 uM incubated for 24 to 48 hrs by CCK-8 assay", "format": "functional, cell-based", "conditions": "time lower […], time upper 48.0 hrs"}, "Cytochrome P450 2D6": {"target": "Cytochrome P450 2D6 (Homo sapiens, UniProt P10635)", "sequence (P10635 whole entry)": "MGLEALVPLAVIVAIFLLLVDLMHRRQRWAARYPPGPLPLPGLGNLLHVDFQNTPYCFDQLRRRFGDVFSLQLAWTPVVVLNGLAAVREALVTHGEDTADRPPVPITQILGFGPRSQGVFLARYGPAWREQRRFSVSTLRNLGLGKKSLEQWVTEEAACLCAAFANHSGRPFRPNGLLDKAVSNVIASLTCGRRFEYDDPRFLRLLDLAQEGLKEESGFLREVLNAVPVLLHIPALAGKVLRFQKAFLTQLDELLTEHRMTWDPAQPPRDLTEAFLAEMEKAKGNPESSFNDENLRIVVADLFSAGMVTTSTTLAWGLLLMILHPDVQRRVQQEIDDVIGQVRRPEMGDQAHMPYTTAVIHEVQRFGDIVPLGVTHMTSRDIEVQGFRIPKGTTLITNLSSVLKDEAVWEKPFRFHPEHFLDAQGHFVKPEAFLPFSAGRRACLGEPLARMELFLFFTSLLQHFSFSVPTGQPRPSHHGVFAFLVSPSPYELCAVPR", "test": "Inhibition of CYP2D6 in human liver microsomes using dextromethorphan as substrate pre-incubated for 30 mins followed by substrate addition and measured after 15 mins in presence of NADPH by LC/MS analysis", "format": "ADME, Microsome"}, "[4]": {"test": "Metabolic stability in Sprague-Dawley rat liver microsomes assessed as compound remaining at 5 ug/ml incubated for 1 hr in presence of NADPH by LC-MS/MS analysis", "format": "ADME, Microsome", "conditions": "at 5 µg/mL, read-out: Stability"}, "K562": {"tested_on": "K562", "test": "Antiproliferative activity against human K562 cells assessed as reduction in cell viability at 10 uM incubated for 24 to 48 hrs by CCK-8 assay", "format": "functional, cell-based", "conditions": "time lower […], time upper 48.0 hrs"}, "HCT-116 [5]": {"tested_on": "HCT-116", "test": "Inhibition of cell migration human HCT-116 cells incubated for 48 hrs by crystal violet staining based transwell assay", "format": "functional", "conditions": "dose 3-12 µM"}, "MKN-45": {"tested_on": "MKN-45", "test": "Antiproliferative activity against human MKN-45 cells assessed as reduction in cell viability at 10 uM incubated for 24 to 48 hrs by CCK-8 assay", "format": "functional, cell-based", "conditions": "time lower […], time upper 48.0 hrs"}, "HCT-116 [6]": {"tested_on": "HCT-116", "test": "Induction of cell cycle arrest at G1/G0 phase in human HCT-116 cells assessed as decrease in cyclinD1 expression incubated for 48 hrs by Western blotting analysis", "format": "functional, cell-based", "conditions": "dose 3-12 µM"}, "CAL-62": {"tested_on": "CAL-62", "test": "Antiproliferative activity against human CAL-62 cells assessed as reduction in cell viability at 10 uM incubated for 24 to 48 hrs by CCK-8 assay", "format": "functional, cell-based", "conditions": "time lower […], time upper 48.0 hrs"}, "SW-620": {"tested_on": "SW-620", "test": "Antiproliferative activity against human SW-620 cells assessed as reduction in cell viability incubated for 24 to 48 hrs by CCK-8 assay", "format": "functional, cell-based"}, "HCT-116 [7]": {"tested_on": "HCT-116", "test": "Induction of cell cycle arrest in human HCT-116 cells assessed as increase in accumulation of cells at G1/G0 phase at 3 to 12 uM incubated for 48 hrs by PI staining based flow cytometry analysis (reference value: 36.6 %)", "format": "functional", "conditions": "dose 3-12 µM"}, "[8]": {"test": "Metabolic stability in artificial gastrointestinal fluid assessed as compound remaining measured upto 8 hrs by LC-MS/MS analysis", "format": "ADME"}, "786-0": {"tested_on": "786-0", "test": "Antiproliferative activity against human 786-0 cells assessed as reduction in cell viability at 10 uM incubated for 24 to 48 hrs by CCK-8 assay", "format": "functional, cell-based", "conditions": "time lower […], time upper 48.0 hrs"}, "HCT-116 [9]": {"tested_on": "HCT-116", "test": "Antiproliferative activity against human HCT-116 cells assessed as reduction in cell viability incubated for 24 to 48 hrs by CCK-8 assay", "format": "functional, cell-based"}, "GBC-SD": {"tested_on": "GBC-SD", "test": "Antiproliferative activity against human GBC-SD cells assessed as reduction in cell viability at 10 uM incubated for 24 to 48 hrs by CCK-8 assay", "format": "functional, cell-based", "conditions": "time lower […], time upper 48.0 hrs"}, "HeLa": {"tested_on": "HeLa", "test": "Antiproliferative activity against human HeLa cells assessed as reduction in cell viability at 10 uM incubated for 24 to 48 hrs by CCK-8 assay", "format": "functional, cell-based", "conditions": "time lower […], time upper 48.0 hrs"}, "[10]": {"test": "Cytotoxicity against human NCM460 cells assessed as reduction in cell viability incubated for 24 to 48 hrs by CCK-8 assay", "format": "toxicity, cell-based"}, "SF-126": {"tested_on": "SF-126", "test": "Antiproliferative activity against human SF-126 cells assessed as reduction in cell viability at 10 uM incubated for 24 to 48 hrs by CCK-8 assay", "format": "functional, cell-based", "conditions": "time lower […], time upper 48.0 hrs"}, "[11]": {"test": "Cmax in Sprague-Dawley rat at 5 mg/kg, iv measured upto 24 hrs by LC-MS analysis", "format": "ADME, organism-based", "conditions": "in vivo"}, "HCT-116 [12]": {"tested_on": "HCT-116", "test": "Antiproliferative activity against human HCT-116 cells assessed as inhibition of ERK1/2 phosphorylation incubated for 48 hrs by Western blotting analysis", "format": "functional, cell-based", "conditions": "dose 3-12 µM"}, "Cytochrome P450 1A2": {"target": "Cytochrome P450 1A2 (Homo sapiens, UniProt P05177)", "sequence (P05177 whole entry)": "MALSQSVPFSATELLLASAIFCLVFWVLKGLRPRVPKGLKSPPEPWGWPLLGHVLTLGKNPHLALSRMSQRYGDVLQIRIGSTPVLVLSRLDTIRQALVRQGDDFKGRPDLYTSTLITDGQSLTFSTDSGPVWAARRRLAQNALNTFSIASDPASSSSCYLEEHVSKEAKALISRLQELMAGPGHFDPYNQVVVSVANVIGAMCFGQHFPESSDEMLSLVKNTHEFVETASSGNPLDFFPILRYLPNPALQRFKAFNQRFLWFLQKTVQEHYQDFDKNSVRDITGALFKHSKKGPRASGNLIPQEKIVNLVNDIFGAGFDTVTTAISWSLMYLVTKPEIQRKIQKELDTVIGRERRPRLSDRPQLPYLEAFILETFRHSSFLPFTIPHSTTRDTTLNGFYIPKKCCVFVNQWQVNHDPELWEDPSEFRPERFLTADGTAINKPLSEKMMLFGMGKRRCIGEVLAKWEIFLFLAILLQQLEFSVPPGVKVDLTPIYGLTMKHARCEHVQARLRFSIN", "test": "Inhibition of CYP1A2 in human liver microsomes using phenacetin as substrate pre-incubated for 30 mins followed by substrate addition and measured after 15 mins in presence of NADPH by LC/MS analysis", "format": "ADME, Microsome"}, "[13]": {"target": "Phosphatidylinositol 4,5-bisphosphate 3-kinase catalytic subunit gamma isoform (Homo sapiens, UniProt P48736)", "sequence (P48736 whole entry, canonical isoform)": "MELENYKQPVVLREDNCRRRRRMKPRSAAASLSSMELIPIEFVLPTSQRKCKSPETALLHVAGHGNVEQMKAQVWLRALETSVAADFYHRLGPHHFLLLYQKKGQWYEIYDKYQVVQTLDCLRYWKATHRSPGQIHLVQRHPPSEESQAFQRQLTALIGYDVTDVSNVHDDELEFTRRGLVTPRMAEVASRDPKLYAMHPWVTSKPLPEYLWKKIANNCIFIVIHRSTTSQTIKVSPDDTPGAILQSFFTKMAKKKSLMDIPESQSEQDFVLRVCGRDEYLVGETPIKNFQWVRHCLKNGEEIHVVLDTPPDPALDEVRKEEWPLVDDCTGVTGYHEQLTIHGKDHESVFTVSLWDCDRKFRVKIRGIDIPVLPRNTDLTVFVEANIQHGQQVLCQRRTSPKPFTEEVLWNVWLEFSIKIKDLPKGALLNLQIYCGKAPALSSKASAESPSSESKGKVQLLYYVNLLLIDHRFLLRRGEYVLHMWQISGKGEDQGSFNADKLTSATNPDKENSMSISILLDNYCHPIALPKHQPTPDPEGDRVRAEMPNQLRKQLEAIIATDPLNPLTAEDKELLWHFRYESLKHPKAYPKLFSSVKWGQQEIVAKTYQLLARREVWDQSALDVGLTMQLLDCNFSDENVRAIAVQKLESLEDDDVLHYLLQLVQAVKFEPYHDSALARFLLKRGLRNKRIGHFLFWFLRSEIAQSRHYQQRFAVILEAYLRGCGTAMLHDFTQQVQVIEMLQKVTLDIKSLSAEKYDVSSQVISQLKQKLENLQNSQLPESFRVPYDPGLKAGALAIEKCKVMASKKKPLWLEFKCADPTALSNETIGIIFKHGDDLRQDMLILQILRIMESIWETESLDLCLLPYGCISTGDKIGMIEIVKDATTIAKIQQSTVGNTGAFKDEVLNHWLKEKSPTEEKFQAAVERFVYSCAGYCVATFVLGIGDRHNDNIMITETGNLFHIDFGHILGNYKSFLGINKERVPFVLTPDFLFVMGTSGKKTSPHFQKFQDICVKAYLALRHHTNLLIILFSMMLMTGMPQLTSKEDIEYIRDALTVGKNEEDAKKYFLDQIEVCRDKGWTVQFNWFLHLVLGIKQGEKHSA", "test": "Inhibition of PI3Kgamma (unknown origin) by ADP-Glo luminescent kinase assay"}, "[14]": {"target": "Phosphatidylinositol 4,5-bisphosphate 3-kinase catalytic subunit beta isoform (Homo sapiens, UniProt P42338)", "sequence (P42338 whole entry, canonical isoform)": "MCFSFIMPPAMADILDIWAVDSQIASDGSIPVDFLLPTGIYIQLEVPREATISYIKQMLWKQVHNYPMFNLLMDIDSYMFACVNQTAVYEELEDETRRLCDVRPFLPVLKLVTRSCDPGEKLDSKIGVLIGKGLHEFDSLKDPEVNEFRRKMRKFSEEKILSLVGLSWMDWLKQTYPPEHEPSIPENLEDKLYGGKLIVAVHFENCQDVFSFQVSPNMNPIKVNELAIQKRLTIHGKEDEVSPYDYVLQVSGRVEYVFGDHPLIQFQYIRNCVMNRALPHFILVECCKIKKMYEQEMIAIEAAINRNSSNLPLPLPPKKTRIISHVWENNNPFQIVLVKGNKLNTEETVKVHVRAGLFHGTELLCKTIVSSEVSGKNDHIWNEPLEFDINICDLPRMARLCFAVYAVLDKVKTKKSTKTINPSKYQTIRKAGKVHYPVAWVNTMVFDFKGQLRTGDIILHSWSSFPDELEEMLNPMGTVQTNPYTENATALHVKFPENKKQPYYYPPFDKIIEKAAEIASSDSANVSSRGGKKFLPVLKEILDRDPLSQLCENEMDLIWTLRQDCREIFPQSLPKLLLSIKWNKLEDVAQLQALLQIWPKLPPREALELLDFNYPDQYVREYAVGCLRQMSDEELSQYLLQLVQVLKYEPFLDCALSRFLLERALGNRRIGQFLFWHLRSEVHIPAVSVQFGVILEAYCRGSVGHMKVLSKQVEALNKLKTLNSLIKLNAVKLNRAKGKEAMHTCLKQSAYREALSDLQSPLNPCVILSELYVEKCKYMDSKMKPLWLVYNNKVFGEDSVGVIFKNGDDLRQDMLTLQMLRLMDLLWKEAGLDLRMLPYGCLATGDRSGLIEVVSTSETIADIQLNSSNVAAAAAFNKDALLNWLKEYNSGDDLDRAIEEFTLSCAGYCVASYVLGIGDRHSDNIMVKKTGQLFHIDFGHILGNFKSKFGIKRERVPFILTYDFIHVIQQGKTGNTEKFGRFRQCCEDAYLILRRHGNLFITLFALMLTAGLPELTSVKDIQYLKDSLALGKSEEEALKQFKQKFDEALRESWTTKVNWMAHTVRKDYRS", "test": "Inhibition of PI3Kbeta (unknown origin) by ADP-Glo luminescent kinase assay"}, "Cytochrome P450 2C9": {"target": "Cytochrome P450 2C9 (Homo sapiens, UniProt P11712)", "sequence (P11712 whole entry)": "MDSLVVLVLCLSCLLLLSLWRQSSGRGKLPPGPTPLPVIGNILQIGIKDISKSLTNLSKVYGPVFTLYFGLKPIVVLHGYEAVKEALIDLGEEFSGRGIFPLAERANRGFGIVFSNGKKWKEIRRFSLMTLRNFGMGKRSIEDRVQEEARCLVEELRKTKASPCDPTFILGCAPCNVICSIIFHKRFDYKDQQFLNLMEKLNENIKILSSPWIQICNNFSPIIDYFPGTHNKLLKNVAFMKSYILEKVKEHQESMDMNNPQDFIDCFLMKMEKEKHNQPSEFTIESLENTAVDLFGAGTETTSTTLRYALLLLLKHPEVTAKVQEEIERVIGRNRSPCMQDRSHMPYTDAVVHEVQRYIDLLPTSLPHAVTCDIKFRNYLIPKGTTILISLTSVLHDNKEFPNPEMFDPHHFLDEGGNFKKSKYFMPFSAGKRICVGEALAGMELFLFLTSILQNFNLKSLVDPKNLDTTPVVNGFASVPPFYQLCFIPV", "test": "Inhibition of CYP2C9 in human liver microsomes using tolbutamide as substrate pre-incubated for 30 mins followed by substrate addition and measured after 15 mins in presence of NADPH by LC/MS analysis", "format": "ADME, Microsome"}, "HCT-116 [15]": {"tested_on": "HCT-116", "test": "Induction of apoptosis in human HCT-116 cells assessed as increased total apoptotic cells at 6 uM incubated for 48 hrs by Annexin V-FITC and propidium iodide staining based flow cytometry analysis (reference value: 4.22 %)", "format": "functional"}, "MDA-MB-231": {"tested_on": "MDA-MB-231", "test": "Antiproliferative activity against human MDA-MB-231 cells assessed as reduction in cell viability incubated for 24 to 48 hrs by CCK-8 assay", "format": "functional, cell-based"}, "HCT-116 [16]": {"tested_on": "HCT-116", "test": "Antiproliferative activity against human HCT-116 cells expressing PIK3CA with H1047R mutation assessed as reduction in cell viability incubated for 24 to 48 hrs by CCK-8 assay", "format": "functional, cell-based"}, "Cytochrome P450 3A4": {"target": "Cytochrome P450 3A4 (Homo sapiens, UniProt P08684)", "sequence (P08684 whole entry)": "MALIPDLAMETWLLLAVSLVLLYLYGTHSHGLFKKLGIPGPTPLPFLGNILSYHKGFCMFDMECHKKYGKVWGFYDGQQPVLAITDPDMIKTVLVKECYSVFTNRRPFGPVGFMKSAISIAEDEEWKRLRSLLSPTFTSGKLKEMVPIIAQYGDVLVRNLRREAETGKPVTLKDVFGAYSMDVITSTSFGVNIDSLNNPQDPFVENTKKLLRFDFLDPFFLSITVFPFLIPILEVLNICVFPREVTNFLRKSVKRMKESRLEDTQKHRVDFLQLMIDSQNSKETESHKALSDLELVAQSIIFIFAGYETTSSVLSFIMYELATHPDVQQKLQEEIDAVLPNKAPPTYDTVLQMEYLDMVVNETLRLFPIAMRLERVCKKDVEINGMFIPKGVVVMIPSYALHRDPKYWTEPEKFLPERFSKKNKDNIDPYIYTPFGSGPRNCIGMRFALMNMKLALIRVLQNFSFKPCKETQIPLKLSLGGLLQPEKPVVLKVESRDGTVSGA", "test": "Inhibition of CYP3A4 in human liver microsomes using midazolam as substrate pre-incubated for 30 mins followed by substrate addition and measured after 15 mins in presence of NADPH by LC/MS analysis", "format": "ADME, Microsome"}, "HCT-116 [17]": {"tested_on": "HCT-116", "test": "Induction of apoptosis in human HCT-116 cells assessed as increase in total apoptotic cells at 3 uM incubated for 48 hrs by Annexin V-FITC and propidium iodide staining based flow cytometry analysis (reference value: 4.22 %)", "format": "functional"}, "HOS": {"tested_on": "HOS", "test": "Antiproliferative activity against human HOS cells assessed as reduction in cell viability at 10 uM incubated for 24 to 48 hrs by CCK-8 assay", "format": "functional, cell-based", "conditions": "time lower […], time upper 48.0 hrs"}, "HCT-116 [18]": {"tested_on": "HCT-116", "test": "Induction of apoptosis in human HCT-116 cells assessed as increased total apoptotic cells at 12 uM incubated for 48 hrs by Annexin V-FITC and propidium iodide staining based flow cytometry analysis (reference value: 4.22 %)", "format": "functional"}},
  "note": "Active and inactive are the calls of the source. No cut-off for these calls is given here.",
  "data": [
    {"smiles": "Nc1nc2cc(-c3ccc4ncc(N5C[C@@H]6OCCO[C@@H]6C5)nc4c3)ccc2o1", "values": [
      {"measurement": "MRT last at 24 h", "setting": "[1]", "result": 1.7, "unit": "h"},
      {"measurement": "Activity", "setting": "A549", "result": "Active"},
      {"measurement": "Activity", "setting": "HCT-116 [2]", "result": 24.8, "unit": "%"},
      {"measurement": "Activity", "setting": "HCT-116 [3]", "result": "Dose-Dependent Effect"},
      {"measurement": "Activity", "setting": "HepG2", "result": "Active"},
      {"measurement": "Activity", "setting": "5637", "result": "Active"},
      {"measurement": "IC50", "setting": "Cytochrome P450 2D6", "result": "> 10", "unit": "µM"},
      {"measurement": "remaining at 1 h, 5 ug/ml", "setting": "[4]", "result": 82.3, "unit": "%"},
      {"measurement": "Activity", "setting": "K562", "result": "Active"},
      {"measurement": "inhibition", "setting": "HCT-116 [5]", "result": "Dose-Dependent Effect"},
      {"measurement": "Activity", "setting": "MKN-45", "result": "Active"},
      {"measurement": "Activity", "setting": "HCT-116 [6]", "result": "Dose-Dependent Effect"},
      {"measurement": "Activity", "setting": "CAL-62", "result": "Active"},
      {"measurement": "IC50", "setting": "SW-620", "result": 9.85, "unit": "µM"},
      {"measurement": "Activity", "setting": "HCT-116 [7]", "result": 43.2, "unit": "%"},
      {"measurement": "Stability", "setting": "[8]", "result": "Stable"},
      {"measurement": "Activity", "setting": "786-0", "result": "Active"},
      {"measurement": "IC50", "setting": "HCT-116 [9]", "result": 3.79, "unit": "µM"},
      {"measurement": "Activity", "setting": "GBC-SD", "result": "Active"},
      {"measurement": "Activity", "setting": "HeLa", "result": "Active"},
      {"measurement": "IC50", "setting": "[10]", "result": 49.7, "unit": "µM"},
      {"measurement": "Activity", "setting": "SF-126", "result": "Active"},
      {"measurement": "Cmax", "setting": "[11]", "result": 6000, "unit": "ng/mL"},
      {"measurement": "Activity", "setting": "HCT-116 [12]", "result": "Dose-Dependent Effect"},
      {"measurement": "IC50", "setting": "Cytochrome P450 1A2", "result": "> 10", "unit": "µM"},
      {"measurement": "IC50", "setting": "[13]", "result": 0.2, "unit": "µM"},
      {"measurement": "IC50", "setting": "[14]", "result": 0.45, "unit": "µM"},
      {"measurement": "IC50", "setting": "Cytochrome P450 2C9", "result": "> 10", "unit": "µM"},
      {"measurement": "Activity", "setting": "HCT-116 [15]", "result": 12.31, "unit": "%"},
      {"measurement": "IC50", "setting": "MDA-MB-231", "result": 13.7, "unit": "µM"},
      {"measurement": "IC50", "setting": "HCT-116 [16]", "result": 7.24, "unit": "µM"},
      {"measurement": "IC50", "setting": "Cytochrome P450 3A4", "result": "> 10", "unit": "µM"},
      {"measurement": "Activity", "setting": "HCT-116 [17]", "result": 5.99, "unit": "%"},
      {"measurement": "Activity", "setting": "HOS", "result": "Active"},
      {"measurement": "Activity", "setting": "HCT-116 [18]", "result": 27.03, "unit": "%"}
    ]}
  ]
}
